Assay results taken from article PMC9569971, “New Oxazolo[5,4-d]pyrimidines as Potential Anticancer Agents: Their Design, Synthesis, and In Vitro Biological Activity Research” (International Journal of Molecular Sciences, 2022).
Entries after “also recorded” stand apart in the source; their conditions may differ. Read-outs that look alike come from different tables or passages of the source.

Assays:
MCF7 = settings: cited from earlier work
A549 = settings: cited from earlier work
HT29 [1] = settings: cited from earlier work
LoVo = settings: cited from earlier work
[2] = system: HT29 primary colon adenocarcinoma cells; assay: Detection of apoptosis (Annexin V FITC / propidium iodide); format: cell-based, human; set-up: unit not given here; settings: 24 h
Protocol: (§1) All cell lines were grown in 5% CO2 at 95% humidity and 37 °C, with both morphology and confluence assessed twice per week. When the confluence was greater than 70%, adherent cell lines were detached from the bottle surface with a TrypLE solution and then used in assays or reduced. The cells were collected into centrifuge tubes and centrifuged at 1000× g for 5 min at room temperature. The supernatant was removed to dry. The cell pellets were then resuspended in an appropriate medium. The cells were counted using a Bürker chamber and resuspended in 96-well plates to a cell density of 10,000 cells per well for MTT assay. For the rhodamine accumulation test and the detection of apoptosis assay, cells were seeded at a density of 30,000 per well. In the migration assay, cells were seeded at a density of 20,000 per well, and monolayer formation was awaited.
HT29 primary colon adenocarcinoma cells were grown in 96-well plates for 24 h. The 5 selected derivatives were added at concentrations of 1, 2, 5, and 10 µM, and then incubated for 24 h. The mixture of Annexin V conjugated with fluorescein and propidium iodide in PBS with Mg^2+ and Ca^2+ ions (Thermo Fisher Scientific, Waltham, MA, USA) was then applied. The incubation lasted 20 min at 37 °C. Pictures were taken using a fluorescence microscope. Thirteen images were taken from each well using an EVOS FL fluorescence microscope, with three replications for each compound. The open ImageJ space was used to analyze the number of cells. The Thermo Fisher Dead Cell Apoptosis Kit with Annexin V FITC and Propidium Iodide (PI) detects phosphatidylserine extrusion in apoptotic cells using Annexin V conjugated with a green fluorescent FITC dye and dead cells stained by PI with red fluorescence.

HT29 cells [3] = assay: Migration (scratch) assay; format: cell-based, human; settings: control T 155558.2, control T0 544366.45
Protocol: The scratch test was performed to verify that the tested compound 3g could inhibit the formation of metastases by the HT29 cell line. The seeded HT29 cells were incubated until they formed a monolayer over the entire surface of the well. Then, a scratch test was performed by making a scratch in the monolayer and measuring its width—that is, To, amounting to 544,366.45 μm^2. Freshly prepared compounds were added to the HT29 cells at concentrations of 10, 25, 50, and 100 μM. Breeding plates were incubated for 24 h. The next day, scratch width was measured again using the ImageJ open-source platform. […] The lowest cellular overgrowth of HT29 culture occurred at the concentration of 100 μM for the compound. Compound 3g inhibited the migration of HT29 cells more strongly than the reference drugs, showing that it has the potential to inhibit metastasis. The width of the scratch after 24 h when no compound was applied to the cells was used as a control (T = 155,558.2 μm^2).
as §1
After seeding, HT29 cells were incubated until they formed a monolayer over the entire surface of the well. A scratch was made on the surface overgrown with cells, and then photomicrographs of the scratch were taken using the EVOS FL microscope. The freshly prepared compound 3g and the reference drugs were added at concentrations of 10, 25, 50, and 100 µM. Then, they were incubated for 24 h, and micrographs were performed at that time using the EVOS FL microscope. The scratch width was measured using the ImageJ open-source platform. The measurement of scratch width was also performed after 24 h without adding compounds.

HT29 [4] = system: HT29; set-up: method as in PMID 32759841; settings: estimated based on data taken from reference; cited from earlier work
Jurkat T-cell = system: Jurkat T-cell; set-up: method as in PMID 32759841; settings: cited from earlier work
[5] = system: primary colon adenocarcinoma (HT29); assay: MTT viability assay, HT29; format: cell-based, human; settings: for SI (selectivity index): CC50 NHDF / CC50 HT29; for CC50: Homo sapiens, HT-29, HT29, MTT
Protocol: as §1, with “When” for “All cell lines were grown in 5% CO2 at 95% humidity and 37 °C, with both morphology and confluence assessed twice per week. When”
(§2) In this study, normal human dermal fibroblasts (NHDFs), breast cancer cells (MCF7), human lung adenocarcinoma cells (A549), murine fibroblasts (L929), colon adenocarcinoma cells (HT29), and colorectal adenocarcinoma cells (LoVo) were used. All cell lines were cultured in the recommended media. […] The human lung adenocarcinoma cell line A549 and breast cancer cell line MCF-7 were obtained from the ECACC. These cell lines were cultured in Eagle’s minimal essential medium (MEM). Murine fibroblast L929 (Sigma-Aldrich, Merck Group, Headquarters, Darmstadt, Germany; the European Collection of Authenticated Cell Cultures—ECACC) cells were grown in DMEM. […] All media were supplemented with 10% FBS and 100 µg/mL of penicillin–streptomycin.
(§3) All compounds were dissolved in DMSO and the reference drugs were dissolved in physiological saline to concentrations of 10 mM. Concentrations from 1 to 500 μM in the media recommended for the cell lines were prepared for the tests.
(§4) All of the synthesized derivatives were evaluated via the MTT assay. All cell lines were seeded into 96-well plates at a density of 10,000 cells per well. To allow the cells to adhere to the surface of the plates, they were incubated overnight before the application of the test compounds. […] The tests were performed for concentrations of 1, 5, 10, 25, 50, 100, 250, and 500 μM. The solutions of the test compounds were removed from the culture on the 96-well plates. […] The supernatant was then removed. The violet crystal was dissolved in isopropanol for 30 min by shaking. Absorbance was measured at 570 nm.
(§5) Biological assays were performed in three independent replicates, and each replicate used four samples. Three repetitions were made for the ELISA determinations. For the assessment of cytotoxicity, mathematical models were developed using the GraphPad PRISM software, based on which CC50 was determined. The values of CC50 were estimated based on nonlinear regression using the dependence of the biological effect on the molar concentrations of the compounds (four-parameter logistic model with Hill slope).

[6] = MTT viability assay, L929; format: cell-based, murine; settings: mouse, L929 fibroblasts, tested 1–500 µM
Protocol: as §1, with “When” for “All cell lines were grown in 5% CO2 at 95% humidity and 37 °C, with both morphology and confluence assessed twice per week. When”
as §2, §3, §4, §5

[7] = system: breast adenocarcinoma (MCF7); assay: MTT viability assay, MCF7; format: cell-based, human; settings: for SI (selectivity index): CC50 NHDF / CC50 MCF7; for CC50: Homo sapiens, MCF7, MTT, tested 1–500 µM
Protocol: as §1, with “When” for “All cell lines were grown in 5% CO2 at 95% humidity and 37 °C, with both morphology and confluence assessed twice per week. When”
as §2, §3, §4, §5

[8] = system: normal human dermal fibroblasts (NHDF); assay: MTT viability assay, NHDF; format: cell-based; settings: tested 1–500 µM
Protocol: as §1, with “When” for “All cell lines were grown in 5% CO2 at 95% humidity and 37 °C, with both morphology and confluence assessed twice per week. When”
as §2, §3, §4, §5

[9] = system: lung adenocarcinoma (A549); assay: MTT viability assay, A549; format: cell-based, human
Protocol: as §1, with “When” for “All cell lines were grown in 5% CO2 at 95% humidity and 37 °C, with both morphology and confluence assessed twice per week. When”
as §2, §3, §4, §5

HT29 cells [10] = system: HT29 cells; set-up: method as in PMID 27002410; settings: cited from earlier work
[11] = system: murine fibroblasts (L929); assay: MTT viability assay, L929; format: cell-based; settings: tested 1–500 µM
Protocol: as §1, with “When” for “All cell lines were grown in 5% CO2 at 95% humidity and 37 °C, with both morphology and confluence assessed twice per week. When”
as §2, §3, §4, §5

[12] = system: metastatic colon adenocarcinoma (LoVo); assay: MTT viability assay, LoVo; format: cell-based, human
Protocol: as §1, with “When” for “All cell lines were grown in 5% CO2 at 95% humidity and 37 °C, with both morphology and confluence assessed twice per week. When”
as §2, §3, §4, §5

[13] = MTT viability assay, NHDF; format: cell-based, human; settings: human, normal human dermal fibroblasts (NHDF), tested 1–500 µM
Protocol: as §1, with “When” for “All cell lines were grown in 5% CO2 at 95% humidity and 37 °C, with both morphology and confluence assessed twice per week. When”
as §2, §3, §4, §5

COc1cc2nccc(Oc3ccc(NC(=O)C4(C(=O)Nc5ccc(F)cc5)CC4)cc3)c2cc1OC [Cabozantinib]
IC50 (MCF7): 14.3 ± 0.87 µM | IC50 (A549; ref 67, read-out: IC50 (converted)): 9.52 ± 0.91 µM | IC50 (A549; ref 68, read-out: IC50 (converted)): 15.2 µM | IC50 (HT29 [1]; ref 67): 11.5 ± 1.1 µM

COc1cc2nccc(Oc3ccc(NC(=O)Nc4cc(C)on4)c(Cl)c3)c2cc1OC [Tivozanib]
IC50 (MCF7): 0.25 ± 0.03 µM | IC50 (A549; ref 64, read-out: IC50 (converted)): 0.19 ± 0.04 µM

CNC(=O)c1cc(Oc2ccc(NC(=O)Nc3ccc(Cl)c(C(F)(F)F)c3)cc2)ccn1 [Sorafenib]
IC50 (A549; ref 80, read-out: IC50 (converted)): 5.62 ± 2.13 µM | IC50 (LoVo): 31 µM | IC50 (HT29 [1]; ref 80): 17.3 ± 3.8 µM

CCN(CC)CCNC(=O)c1c(C)[nH]c(/C=C2\C(=O)Nc3ccc(F)cc32)c1C [Sunitinib]
IC50 (MCF7): 7.3 µM | IC50 (A549; ref 78, read-out: IC50 (converted)): 6.98 µM | IC50 (LoVo): 4.18 ± 0.27 µM | IC50 (HT29 [1]; ref 78): 4.89 µM | IC50 (HT29 [1]; ref 79): 2.25 µM

N.N.[Cl][Pt][Cl] [Cisplatin, reference compound]
apoptosis mean ([2]; 1 μM): 4.45 | late apoptosis mean ([2]; 1 μM): 26.25 | necrosis mean ([2]; 1 μM): 7.81 | percent live (viable) cells ([2]; 1 μM): 50.30 | apoptosis mean ([2]; 2 μM): 7.18 | late apoptosis mean ([2]; 2 μM): 24.44 | necrosis mean ([2]; 2 μM): 4.42 | percent live (viable) cells ([2]; 2 μM): 52.47 | apoptosis mean ([2]; 5 μM): 6.28 | late apoptosis mean ([2]; 5 μM): 29.59 | necrosis mean ([2]; 5 μM): 3.95 | percent live (viable) cells ([2]; 5 μM): 59.69 | apoptosis mean ([2]; 10 μM): 2.34 | late apoptosis mean ([2]; 10 μM): 16.55 | necrosis mean ([2]; 10 μM): 32.35 | percent live (viable) cells ([2]; 10 μM): 48.76 | scratch width after 24 h, mean (HT29 cells [3]; 10 μM): 171562.8 μm^2 | scratch width after 24 h, mean (HT29 cells [3]; 25 μM): 209621 μm^2 | scratch width after 24 h, mean (HT29 cells [3]; 50 μM): 216006.4 μm^2 | scratch width after 24 h, mean (HT29 cells [3]; 100 μM): 253653.8 μm^2 | CC50 (HT29 [4]): 16.9 ± 1.94 µM

Cc1nc(NCCCN(C)C)c2nc(-c3c(C)noc3N)oc2n1 [SCM9]
expression of apoptosis-modulating proteins (Jurkat T-cell; Jurkat T-cell model): did not alter | expression of MAPK pathway components JNK, p38α, and p38β (Jurkat T-cell): increased | CC50 (HT29 [4]): 39.1 ± 7.79 µM

Cc1noc(N)c1-c1nc2c(NCCCO)ncnc2o1 [Compound 3i, 2-(5-Amino-3-methylisoxazol-4-yl)-7-N-(3-hydroxypropyl)aminooxazolo[5,4-d]pyrimidine]
CC50 ± SD ([5]; HT29, MTT, tested 1–500 µM): lack cytotoxic activity | CC50 [6]: 171 ± 22.8 µM | melting point: 225 to 226 °C (dec.) | SI (selectivity index) [7]: >>1 | CC50 [7]: 251 ± 22.1 µM | CC50 ± SD [8]: Non-toxic

CCNc1ncnc2oc(-c3c(C)noc3N)nc12 [Compound 3b, 2-(5-Amino-3-methylisoxazol-4-yl)-7-N-ethylaminooxazolo[5,4-d]pyrimidine]
CC50 ± SD ([9]; A549, MTT, tested 1–500 µM): no activity | SI (selectivity index) [5]: >>1 | CC50 ([5]; tested 1–500 µM): 194 ± 15.4 µM | CC50 [6]: 235 ± 11.5 µM | melting point: 253 to 254 °C (dec.) | SI (selectivity index) [7]: >>1 | CC50 [7]: 193 ± 16.9 µM | CC50 ± SD [8]: Non-toxic

COc1ccc(CCN(C)CCCC(C#N)(c2ccc(OC)c(OC)c2)C(C)C)cc1OC (centres unmarked) [verapamil]
intracellular fluorescence intensity of Rh-123, increase (HT29 cells [10]; HT29, treatment 48 h): 1.77 fold | intracellular fluorescence intensity of Rh-123, increase (HT29 cells [10]; HT29, treatment 72 h): 1.9 fold

COc1cc2c(Nc3ccc(Br)cc3F)ncnc2cc1OCC1CCN(C)CC1 [Vandetanib]
IC50 (MCF7): 12.2 ± 0.28 µM | IC50 (A549; ref 72, read-out: IC50 (converted)): 2.7 ± 0.5 µM | IC50 (LoVo): 3.5 ± 0.9 µM | IC50 (HT29 [1]; ref 74): 10 ± 0.4 µM

CNC(=O)c1cc(Oc2ccc(NC(=O)Nc3ccc(Cl)c(C(F)(F)F)c3)c(F)c2)ccn1 [Regorafenib]
IC50 (LoVo): 2 µM | IC50 (HT29 [1]; ref 66): 2.75 ± 0.18 µM

CCCCNc1ncnc2oc(-c3c(C)noc3N)nc12 [Compound 3d, 2-(5-Amino-3-methylisoxazol-4-yl)-7-N-butylaminooxazolo[5,4-d]pyrimidine]
SI (selectivity index) ([9]; CC50 NHDF / CC50 A549): 0.705 | CC50 ([9]; Homo sapiens, A549, MTT, tested 1–500 µM): 179 ± 14.9 µM | SI (selectivity index) [5]: 0.820 | CC50 ([5]; tested 1–500 µM): 154 ± 13.4 µM | CC50 ± SD [11]: no toxic activity; also recorded: Non-toxic | SI (selectivity index) ([12]; CC50 NHDF / CC50 LoVo): 0.558 | CC50 ([12]; Homo sapiens, LoVo, MTT, tested 1–500 µM): 226 ± 8.28 µM | melting point: 239 to 240 °C (dec.) | SI (selectivity index) [7]: 0.944 | CC50 [7]: 134 ± 14 µM | CC50 [13]: 126 ± 9.87 µM

Cc1ccc(Nc2nccc(N(C)c3ccc4c(C)n(C)nc4c3)n2)cc1S(N)(=O)=O [Pazopanib]
IC50 (MCF7): 6.29 µM | IC50 (A549; ref 75, read-out: IC50 (converted)): 4 to 6 µM | IC50 (HT29 [1]; ref 77): > 5 µM
